Assay: Reconstitution studies in 150 mL Ora-Sweet SF syrup (visual inspection)
Type: physicochemical
Conditions: 150 mL Ora-Sweet SF sugar-free flavored syrup
Method: The scaled-up enalapril and mannitol powder compositions (Enalapril Powder Composition A and the like) were examined in reconstitution studies where 150 mL Ora-Sweet® SF sugar-free flavored syrup was to the powder compositions.
Reconstitution of Neat Enalapril Powder in Bottle: Due to the ‘clouding’ in the reconstitution as well as the uniformity issues in the scale-up studies of Enalapril Powder Composition A, neat enalapril, i.e., drug alone, without any excipients, was examined for scale-up bottle filling and subsequent reconstitution.

With `CCOC(=O)[C@H](CCc1ccccc1)N[C@@H](C)C(=O)N1CCC[C@H]1C(=O)O` [neat enalapril, enalapril] the “Reconstitution, visual observation of dissolution” value was “did not dissolve”.
